Experimental data: patent US20220226323A1, “ALDOSE REDUCTASE INHIBITORS FOR TREATMENT OF PHOSPHOMANNOMUTASE 2 DEFICIENCY” (Applied Therapeutics, Inc., priority 2019, published 2022)

Columns and labels:
PMM2 = PMM2 enzyme activity in PMM2-CDG patient-derived fibroblasts; assay type: cell-based, human; conditions: 50 nM, 24 hours; four PMM2-CDG patient-derived fibroblast lines; vs DMSO-treated mutant cell line
Method: Cells were seeded in a 96-well plate, homogenization buffer (20 mM HEPES, 25 mM KCl, 1 mM DTT, 10 μg/ml leupeptin, 10 μg/ml antipain) was added and plates were freeze-thawed at —80° C. twice to lyse cells. Reaction buffer (50 mM HEPES, 5 mM MgCl2, 0.5 mM NADP+, 10 μg/ml yeast glucose-6-phosphate dehydrogenase, 10 μM glucose-1,6-bisphosphate, 10 μg/ml phosphoglucoisomerase, 5.25 μg/ml phosphomannoseisomerase) containing 200 μM mannose-1-phosphate as substrate was then added to the wells of each plate. Plates were incubated at 37° C. for 270 min and absorbance was read at 340 nm at 30, 60, 90, 120, 150, 180, 210, 240 and 270 min by removing the plate from incubation at the respective time points. All incubations were carried out with or without substrate (mannose-1-phosphate) and the difference between the two values was calculated as the enzymatic activity. Enzyme activity was normalized to total lysate protein levels. Enzyme activities of fibroblasts in the absence of an AR inhibitor were determined. […] Following this, enzyme activity was assessed as described above. […] For ease of analysis, the enzyme activity (as represented by NADPH concentration) of each treatment condition was compared with the activity of a baseline, untreated mutant cell line at the last time point.

[1] = CNS penetration (statement)

## O=C(O)Cc1nn(Cc2nc3cc(C(F)(F)F)ccc3s2)c(=O)c2cscc12 [Compound B]
PMM2
  PMM2 enzyme activity in patient-derived fibroblast cell lines: increased PMM2 enzyme activity in each of the four patient-derived cell lines tested
[1]
  CNS penetration: CNS penetrant
